Data on 30 compounds can be found in patent publication US11524938B2, “Aromatic sulfonamide derivatives” (Bayer Pharma Aktiengesellschaft, priority 2016, dated 2022).

This assay deals with T1, human P2X4 (Homo sapiens, UniProt Q99571).
T1 sequence (Q99571 1-388): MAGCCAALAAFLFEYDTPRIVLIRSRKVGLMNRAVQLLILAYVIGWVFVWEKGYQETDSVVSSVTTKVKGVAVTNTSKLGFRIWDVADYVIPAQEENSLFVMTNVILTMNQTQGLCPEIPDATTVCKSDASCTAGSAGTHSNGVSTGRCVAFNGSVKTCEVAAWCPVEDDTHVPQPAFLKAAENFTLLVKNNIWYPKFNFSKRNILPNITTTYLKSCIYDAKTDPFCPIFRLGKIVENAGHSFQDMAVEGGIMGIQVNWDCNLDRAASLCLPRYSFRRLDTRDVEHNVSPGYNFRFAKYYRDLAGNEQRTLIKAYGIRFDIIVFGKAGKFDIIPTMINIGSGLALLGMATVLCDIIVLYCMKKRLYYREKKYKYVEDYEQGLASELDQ
The experiment in a line: Human P2X4 HEK Cell FLIPR Assay. It counts as cell-based. To be noted: agonist Bz-ATP at EC80; for Emax: percentage of maximal inhibition, read-out: Human P2X4 HEK Cells (FLIPR Assay) avg Efficacy [%]; for IC50: individual values listed where some fall outside detection range. The procedure, abridged:
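Calcium flux read by FLIPR for 120 sec after Bz-ATP challenge at EC80 (established each assay day), following 30 min room-temperature compound preincubation in dye-loaded stable human P2X4 HEK293 cells. Peak RFU over basal normalized to agonist control; IC50, maximal inhibition and Hill coefficient from triplicate means.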

Where “and” joins values, the source holds several entries; their conditions need not be identical. Identical values can stand only once. Like-named read-outs stand apart in the source and are kept apart here.

Take `COCCn1cc(-c2ccc(NC(=O)Cc3ccccc3F)cc2S(N)(=O)=O)cn1` [Example 369, 2-(2-Fluorophenyl)-N-{4-[1-(2-methoxyethyl)-1H-pyrazol-4-yl]-3-sulfamoylphenyl}acetamide]: the Emax (HEK293, HEK293 cells) is 110%. For the setting “HEK293 cells”, this compound registered an IC50 of 141 nM.
For the compound `CC(C)(O)Cn1cc(-c2ccc(NC(=O)Cc3ccccc3Cl)cc2S(N)(=O)=O)cn1` [Example 370, 2-(2-Chlorophenyl)-N-{4-[1-(2-hydroxy-2-methylpropyl)-1H-pyrazol-4-yl]-3-sulfamoylphenyl}acetamide], the Emax (HEK293, HEK293 cells) came to 76%. For the setting “HEK293 cells”, this compound gave an IC50 of 143 nM.
Take `NS(=O)(=O)c1cc(NC(=O)Cc2cc(Cl)ccc2F)ccc1-c1cnn(C2CC2)c1` [Example 371, 2-(5-Chloro-2-fluorophenyl)-N-[4-(1-cyclopropyl-1H-pyrazol-4-yl)-3-sulfamoylphenyl]acetamide]: for the setting “HEK293, HEK293 cells”, the Emax worked out at 99%. Also, the IC50 (HEK293 cells) was 152 nM.
For `Cc1ccc(-c2ccc(NC(=O)Cc3ccccc3Cl)cc2S(N)(=O)=O)cn1` [Example 372, 2-(2-Chlorophenyl)-N-[4-(6-methylpyridin-3-yl)-3-sulfamoylphenyl]acetamide], for the setting “HEK293, HEK293 cells”, the Emax was found to be 83%. Besides, the IC50 (HEK293 cells) stood at 166 nM.
With `NS(=O)(=O)c1cc(NC(=O)Cc2ccccc2Cl)ccc1-c1cnn(C2COC2)c1` [Example 373, 2-(2-Chlorophenyl)-N-{4-[1-(oxetan-3-yl)-1H-pyrazol-4-yl]-3-sulfamoylphenyl}-acetamide], the Emax (HEK293, HEK293 cells) is 89%. Further, the IC50 (HEK293 cells) worked out at 167 nM.
Take `Cn1cc(-c2ccc(NC(=O)Cc3ccccc3F)cc2S(N)(=O)=O)cn1` [Example 374, 2-(2-Fluorophenyl)-N-[4-(1-methyl-1H-pyrazol-4-yl)-3-sulfamoylphenyl]acetamide]: the Emax (HEK293, HEK293 cells) came out at 82%. Besides, the IC50 (HEK293 cells) was 386 nM.
In the same order, the values of `Cc1nn(C)cc1-c1ccc(NC(=O)Cc2ccccc2F)cc1S(N)(=O)=O` [Example 375, N-[4-(1,3-Dimethyl-1H-pyrazol-4-yl)-3-sulfamoylphenyl]-2-(2-fluorophenyl)acetamide] are 79% and 660 nM.
In the same order, the values of `NS(=O)(=O)c1cc(NC(=O)Cc2ccccc2F)ccc1-c1nnc(C2CC2)o1` [Example 376, N-[4-(5-Cyclopropyl-1,3,4-oxadiazol-2-yl)-3-sulfamoylphenyl]-2-(2-fluorophenyl)-acetamide] are 98% and 9 nM.
In the case of `NS(=O)(=O)c1cc(NC(=O)Cc2ccccc2Cl)ccc1-c1nnc(C2CC2)o1` [Example 377, 2-(2-Chlorophenyl)-N-[4-(5-cyclopropyl-1,3,4-oxadiazol-2-yl)-3-sulfamoylphenyl]-acetamide], the Emax (HEK293, HEK293 cells) was determined as 80%. Moreover, for the setting “HEK293 cells”, the IC50 amounted to 27 nM.
The corresponding values for `NS(=O)(=O)c1cc(NC(=O)Cc2ccccc2F)ccc1-n1cc(C(F)F)cn1` [Example 378, N-{4-[4-(Difluoromethyl)-1H-pyrazol-1-yl]-3-sulfamoylphenyl}-2-(2-fluorophenyl)acetamide] are 84% and 89 nM.
For `NS(=O)(=O)c1cc(NC(=O)Cc2ccccc2Cl)ccc1-n1cc(C(F)F)cn1` [Example 379, 2-(2-Chlorophenyl)-N-{4-[4-(difluoromethyl)-1H-pyrazol-1-yl]-3-sulfamoylphenyl}acetamide], where the note is “HEK293, HEK293 cells”, the Emax turned out to be 87%. Besides, the IC50 (HEK293 cells) is 29 nM.
`NS(=O)(=O)c1cc(NC(=O)Cc2ccccc2F)cnc1-n1cc(C(F)(F)F)cn1` [Example 381, 2-(2-Fluorophenyl)-N-{5-sulfamoyl-6-[4-(trifluoromethyl)-1H-pyrazol-1-yl]pyridin-3-yl}acetamide]: under “HEK293, HEK293 cells”, the Emax worked out at 77%.
With `N#Cc1cnn(-c2ncc(NC(=O)Cc3ccccc3F)cc2S(N)(=O)=O)c1` [Example 382, N-[6-(4-Cyano-1H-pyrazol-1-yl)-5-sulfamoylpyridin-3-yl]-2-(2-fluorophenyl)acetamide], under “HEK293, HEK293 cells”, the Emax turned out to be 87%. The same compound showed an IC50 (HEK293 cells) of 315 nM.
In the same order, the values of `N#Cc1cnn(-c2ncc(NC(=O)Cc3ccccc3Cl)cc2S(N)(=O)=O)c1` [Example 383, 2-(2-Chlorophenyl)-N-[6-(4-cyano-1H-pyrazol-1-yl)-5-sulfamoylpyridin-3-yl]acetamide] are 93% and 45 nM.
In the same order, the values of `NS(=O)(=O)c1cc(NC(=O)Cc2ccccc2F)cnc1-n1cc(F)cn1` [Example 384, 2-(2-Fluorophenyl)-N-[6-(4-fluoro-1H-pyrazol-1-yl)-5-sulfamoylpyridin-3-yl]acetamide] are 81% and 524 nM.
The corresponding values for `NS(=O)(=O)c1cc(NC(=O)Cc2ccccc2Cl)cnc1-n1cc(F)cn1` [Example 385, 2-(2-Chlorophenyl)-N-[6-(4-fluoro-1H-pyrazol-1-yl)-5-sulfamoylpyridin-3-yl]acetamide] are 72% and 47 nM.
Turning to `NS(=O)(=O)c1cc(NC(=O)Cc2ccccc2F)cnc1-n1cc(Br)cn1` [Example 386, N-[6-(4-Bromo-1H-pyrazol-1-yl)-5-sulfamoylpyridin-3-yl]-2-(2-fluorophenyl)acetamide], under “HEK293, HEK293 cells”, the Emax came to 64%. Also, the IC50 (HEK293 cells) is 76 nM.
As for `NS(=O)(=O)c1cc(NC(=O)Cc2ccccc2F)cnc1-n1cc(Cl)cn1` [Example 388, N-[6-(4-Chloro-1H-pyrazol-1-yl)-5-sulfamoylpyridin-3-yl]-2-(2-fluorophenyl)acetamide], the Emax (HEK293, HEK293 cells) is 68%. Also, the IC50 (HEK293 cells) stood at 196 nM.
The corresponding values for `NS(=O)(=O)c1cc(NC(=O)Cc2ccccc2Cl)cnc1-n1cc(Br)cn1` [Example 389, N-[6-(4-Bromo-1H-pyrazol-1-yl)-5-sulfamoylpyridin-3-yl]-2-(2-chlorophenyl)-acetamide] are 77% and 22 nM.
In the case of `NS(=O)(=O)c1cc(NC(=O)Cc2ccccc2F)ccc1-c1nnc(C(F)(F)F)o1` [Example 390, 2-(2-Fluorophenyl)-N-{3-sulfamoyl-4-[5-(trifluoromethyl)-1,3,4-oxadiazol-2-yl]phenyl}acetamide], under “HEK293 cells”, the IC50 was 1700 nM and the Emax stood at 91%.
Turning to `NS(=O)(=O)c1cc(NC(=O)Cc2ccccc2Cl)ccc1-c1nnc(C(F)(F)F)o1` [Example 391, 2-(2-Chlorophenyl)-N-{3-sulfamoyl-4-[5-(trifluoromethyl)-1,3,4-oxadiazol-2-yl]phenyl}acetamide], the Emax (HEK293, HEK293 cells) came to 98%. For the same compound, for the setting “HEK293 cells”, the 50% inhibitory concentration (IC50) stood at 186 nM.
In the same order, the values of `NS(=O)(=O)c1cc(NC(=O)Cc2ccccc2Cl)ccc1-n1cnc(-c2cccnc2)n1` [Example 392, 2-(2-Chlorophenyl)-N-{4-[3-(pyridin-3-yl)-1H-1,2,4-triazol-1-yl]-3-sulfamoylphenyl}acetamide] are 64% and 9660 nM.
For `NS(=O)(=O)c1cc(NC(=O)Cc2ccccc2F)ccc1-n1cccn1` [Example 393, 2-(2-Fluorophenyl)-N-[4-(1H-pyrazol-1-yl)-3-sulfamoylphenyl]acetamide], for the setting “HEK293, HEK293 cells”, the Emax came to 49%.
Regarding `CC(C)(C)c1cnn(-c2ccc(NC(=O)Cc3ccccc3Cl)cc2S(N)(=O)=O)c1` [Example 394, N-[4-(4-tert-Butyl-1H-pyrazol-1-yl)-3-sulfamoylphenyl]-2-(2-chlorophenyl)acetamide], the Emax (HEK293, HEK293 cells) was found to be 86%. Moreover, the IC50 (HEK293 cells) is 740 nM.
In the same order, the values of `NS(=O)(=O)c1cc(NC(=O)Cc2ccccc2Cl)ccc1-n1ncc2ccccc21` [Example 395, 2-(2-Chlorophenyl)-N-[4-(1H-indazol-1-yl)-3-sulfamoylphenyl]acetamide] are 86% and 73 nM.
For `NS(=O)(=O)c1cc(NC(=O)Cc2ccccc2Cl)ccc1-n1cc2ccccc2n1` [Example 396, 2-(2-Chlorophenyl)-N-[4-(2H-indazol-2-yl)-3-sulfamoylphenyl]acetamide], the Emax (HEK293, HEK293 cells) turned out to be 44%. For the same compound, the IC50 (HEK293 cells) is 9.58 µM and > 25 µM (4×).
With `NS(=O)(=O)c1cc(NC(=O)Cc2ccccc2F)ccc1-n1cc2ccccc2n1` [Example 397, 2-(2-Fluorophenyl)-N-[4-(2H-indazol-2-yl)-3-sulfamoylphenyl]acetamide], the Emax (HEK293, HEK293 cells) was 43%. Under “HEK293 cells”, this compound yielded an IC50 of over 25000 nM.
For `NS(=O)(=O)c1cc(NC(=O)Cc2ccccc2F)ccc1-n1ncc2ccccc21` [Example 398, 2-(2-Fluorophenyl)-N-[4-(1H-indazol-1-yl)-3-sulfamoylphenyl]acetamide], where the note is “HEK293, HEK293 cells”, the Emax worked out at 57%. Moreover, for the setting “HEK293 cells”, the half-inhibitory concentration (IC50) turned out to be 207 nM.
In the same order, the values of `CN(C)C(=O)c1cnn(-c2ccc(NC(=O)Cc3ccccc3Cl)cc2S(N)(=O)=O)c1` [Example 399, 1-(4-{[(2-Chlorophenyl)acetyl]amino}-2-sulfamoylphenyl)-N,N-dimethyl-1H-pyrazole-4-carboxamide] are 92% and 84 nM.
For the compound `NS(=O)(=O)c1cc(NC(=O)Cc2ccccc2Cl)ccc1-n1cc(NC(=O)C2CC2)cn1` [Example 400, N-[1-(4-{[(2-Chlorophenyl)acetyl]amino}-2-sulfamoylphenyl)-1H-pyrazol-4-yl]cyclopropanecarboxamide], the Emax (HEK293, HEK293 cells) came to 88%. Further, the IC50 (HEK293 cells) was found to be 87 nM.

Usually IC50 stands for the concentration that gives 50% inhibition. A high value points to a need for much substance.
